This note sets out measurements from patent US20240043435A1, “TYK-2 INHIBITOR” (BEIGENE, LTD., priority 2020, published 2024).

Assay [1] concerns the target T1, TYK2-JH2 (aa 575-869, in-house) protein (Homo sapiens, UniProt P29597).
T1 construct: TYK2-JH2 (aa 575-869, in-house) protein; made in house
As to the kind of experiment: TYK2-JH2 biochemical assay (HTRF probe displacement). The class given is binding. The conditions noted are these: Biochemical assay; read-out: TYK2-JH2 IC50. An outline of the steps: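 HTRF probe-displacement format: compound dilutions (10 points, 5-fold, from 500 uM in DMSO at 500×) were combined with 0.2 nM TYK2-JH2 protein for 0.5 h at room temperature in HEPES pH 7.5 buffer with MgCl2, BSA, DTT and Brij-35. Percent inhibition came from the 615/665 nm fluorescence ratio, fitted to a four-parameter logistic for IC50.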
For orientation: TR-FRET usually uses a lanthanide donor and a delayed reading to cut background.

The test system of assay [2] is pSTAT5/GM-CSF. Briefly: pSTAT5/GM-CSF cellular assay (JAK2 selectivity). Format: cell-based. The following applies: for Selectivity fold (TYK2/JAK2): pSTAT5/GM-CSF IC50 over pSTAT4/IL-12 IC50.
The subject of assay [3] is JAK2, TYK2/p-STAT4 (Tyr693) activated by IL-12 in NK-92 cell line. As to the kind of experiment: IL-12-JAK2, TYK2/p-STAT4 (Tyr693) inhibition IC50 cellular assay. Format: cell-based. The conditions noted are these: NK92, Cellular assay; read-out: pSTAT4/IL-12 IC50. An outline of the steps:
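p-STAT4 (Tyr693) in lysates was measured by AlphaLISA SureFire Ultra after a 30 min IL-12 challenge (40 ng/ml final) at 37° C. Overnight-starved, IL-2-free NK-92 cells had been pretreated 1 h with compound at 10000 to 0.61 nM (4-fold, 8 points). IC50 values came from four-parameter logistic fitting.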

T1 sequence (P29597 575-869): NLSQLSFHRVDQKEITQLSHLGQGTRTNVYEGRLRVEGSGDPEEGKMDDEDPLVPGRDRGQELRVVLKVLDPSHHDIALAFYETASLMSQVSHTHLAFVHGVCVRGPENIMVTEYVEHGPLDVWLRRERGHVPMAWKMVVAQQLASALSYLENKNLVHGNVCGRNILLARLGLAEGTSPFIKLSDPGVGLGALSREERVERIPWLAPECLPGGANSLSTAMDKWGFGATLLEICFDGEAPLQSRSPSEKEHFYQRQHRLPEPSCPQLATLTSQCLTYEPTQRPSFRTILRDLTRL

As to `CC(=O)Nc1cc(Nc2cccc(S(C)(=O)=O)n2)c(-c2ccn(C)n2)cn1` [Example J11, N-(5-(1-methyl-1H-pyrazol-3-yl)-4-((6-(methylsulfonyl)pyridin-2-yl)amino)pyridin-2-yl)actamide], the IC50 in assay [1] was found to be 0.017 nM; in assay [2] it was 6420 nM; in assay [3], 0.275 nM. Further, the “Selectivity fold (TYK2/JAK2)” value in assay [2] is recorded as 23327 fold.
On the same counts, the results for `COCCOc1cc(Nc2cc(NC(C)=O)ncc2-c2ccn(C)n2)nc(S(C)(=O)=O)c1` [Example J12, N-(4-((4-(2-methoxyethoxy)-6-(methylsulfonyl)pyridin-2-yl)amino)-5-(1-methyl-1H-pyrazol-3-yl)pyridin-2-yl)acetamide] are 0.017 nM, over 10000 nM, 0.847 nM and over 11806 fold.
Regarding `COC(C)COc1cc(Nc2cc(NC(C)=O)ncc2-c2ccn(C)n2)nc(S(C)(=O)=O)c1` (stereo not shown) [Example J13, N-(4-((4-(2-methoxypropoxy)-6-(methylsulfonyl)pyridin-2-yl)amino)-5-(1-methyl-1H-pyrazol-3-yl)pyridin-2-yl)acetamide], the IC50 in assay [1] was 0.054 nM; in assay [2] it was over 10000 nM; in assay [3], 1.18 nM. Further, in assay [2], the “Selectivity fold (TYK2/JAK2)” value was over 8474 fold.
As to `CO[C@H](C)COc1cc(Nc2cc(NC(C)=O)ncc2-c2ccn(C)n2)nc(S(C)(=O)=O)c1` [Example J14, (R)-N-(4-((4-(2-methoxypropoxy)-6-(methylsulfonyl)pyridin-2-yl)amino)-5-(1-methyl-1H-pyrazol-3-yl)pyridin-2-yl)acetamide], the IC50 in assay [1] was 0.033 nM; in assay [2] it was over 10000 nM; in assay [3] it was 0.792 nM. Also, in assay [2], the “Selectivity fold (TYK2/JAK2)” value is on record as over 12626 fold.
As to `CC(=O)Nc1cc(Nc2cc(OCCO)cc(S(C)(=O)=O)n2)c(-c2ccn(C)n2)cn1` [Example J15, N-(4-((4-(2-hydroxyethoxy)-6-(methylsulfonyl)pyridin-2-yl)amino)-5-(1-methyl-1H-pyrazol-3-yl)pyridin-2-yl)acetamide], the values for the IC50 in assay [1], in assay [2] and in assay [3] were 0.016 nM, over 10000 nM and 5.9 nM, respectively. Besides, the “Selectivity fold (TYK2/JAK2)” value in assay [2] is given as over 1694 fold.
On to `CC(=O)Nc1cc(Nc2cc(O[C@H]3C[C@H](O)C3)cc(S(C)(=O)=O)n2)c(-c2ccn(C)n2)cn1` [Example J16, N-(4-((4-((trans)-3-hydroxycyclobutoxy)-6-(methylsulfonyl)pyridin-2-yl)amino)-5-(1-methyl-1H-pyrazol-3-yl)pyridin-2-yl)acetamde], for which the IC50 in assay [1] is 0.015 nM; in assay [2], over 10000 nM; in assay [3], 2.52 nM. Besides, in assay [2], the “Selectivity fold (TYK2/JAK2)” value is over 3968 fold.
Turning to `CC(=O)Nc1cc(Nc2cc(O[C@H]3C[C@@H](O)C3)cc(S(C)(=O)=O)n2)c(-c2ccn(C)n2)cn1` [Example J17, N-(4-((4-((cis)-3-hydroxycyclobutoxy)-6-(methylsulfonyl)pyridin-2-yl)amino)-5-(1-methyl-1H-pyrazol-3-yl)pyridin-2-yl)acetamide], the results for the IC50 in assay [1], in assay [2] and in assay [3] were 0.043 nM, over 10000 nM and 6.8 nM, respectively. In addition, the “Selectivity fold (TYK2/JAK2)” value in assay [2] is recorded as over 1470 fold.
With `COC1CC(Oc2cc(Nc3cc(NC(C)=O)ncc3-c3ccn(C)n3)nc(S(C)(=O)=O)c2)C1` (stereo not shown) [Example J18, N-(4-((4-(3-methoxycyclobutoxy)-6-(methylsulfonyl)pyridin-2-yl)amino)-5-(1-methyl-1H-pyrazol-3-yl)pyridin-2-yl)acetamide], the IC50 in assay [1] was 0.028 nM; in assay [2], over 10000 nM; in assay [3], 0.399 nM. In addition, in assay [2], the “Selectivity fold (TYK2/JAK2)” value is reported as over 25062 fold.
The like results for `COCc1cc(Nc2cc(NC(C)=O)ncc2-c2ccn(C)n2)nc(S(C)(=O)=O)c1` [Example J19, N-(4-((4-(methoxymethyl)-6-(methylsulfonyl)pyridin-2-yl)amino)-5-(1-methyl-1H-pyrazol-3-yl)pyridin-2-yl)acetamide] were, in that order, 0.015 nM, over 10000 nM, 0.882 nM and over 1137 fold.
With `CC(=O)Nc1cc(Nc2cc(OCC#N)cc(S(C)(=O)=O)n2)c(-c2ccn(C)n2)cn1` [Example J20, N-(4-((4-(cyanomethoxy)-6-(methylsulfonyl)pyridin-2-yl)amino)-5-(1-methyl-1H-pyrazol-3-yl)pyridin-2-yl)acetamide], the IC50 in assay [1] is 0.026 nM; in assay [2], over 10000 nM; in assay [3], 3 nM. For the same molecule, the “Selectivity fold (TYK2/JAK2)” value in assay [2] is listed as over 3333 fold.
`COc1cc(Nc2cc(NC(C)=O)ncc2-c2ccn(C)n2)nc(S(C)(=O)=O)c1` [Example J21, N-(4-((4-methoxy-6-(methylsulfonyl)pyridin-2-yl)amino)-5-(1-methyl-1H-pyrazol-3-yl)pyridin-2-yl)acetamide]: the IC50 was 0.017 nM in assay [1], over 10000 nM in assay [2] and 0.72 nM in assay [3]. The “Selectivity fold (TYK2/JAK2)” value in assay [2] is over 13888 fold.
In the case of `CC(=O)Nc1cc(Nc2cc(OC3COC3)cc(S(C)(=O)=O)n2)c(-c2ccn(C)n2)cn1` [Example J22, N-(5-(1-methyl-1H-pyrazol-3-yl)-4-((6-(methylsulfonyl)-4-(oxetan-3-yloxy)pyridin-2-yl)amino)pyridin-2-yl)acetamide], the IC50 in assay [1] was 0.037 nM; in assay [2], over 10000 nM; in assay [3], 1.93 nM. Also, the “Selectivity fold (TYK2/JAK2)” value in assay [2] was over 5181 fold.
`COc1ccc(S(C)(=O)=O)nc1Nc1cc(NC(C)=O)ncc1-c1ccn(C)n1` [Example J23, N-(4-((3-methoxy-6-(methylsulfonyl)pyridin-2-yl)amino)-5-(1-methyl-1H-pyrazol-3-yl)pyridin-2-yl)acetamide]: the IC50 worked out at 0.044 nM in assay [1], 1350 nM in assay [2] and 0.862 nM in assay [3]. Besides, the “Selectivity fold (TYK2/JAK2)” value in assay [2] is 1570 fold.
The like results for `CC(=O)Nc1cc(Nc2cc(OCC(C)O)cc(S(C)(=O)=O)n2)c(-c2ccn(C)n2)cn1` (stereo not shown) [Example J24, N-(4-((4-(2-hydroxypropoxy)-6-(methylsulfonyl)pyridin-2-yl)amino)-5-(1-methyl-1H-pyrazol-3-yl)pyridin-2-yl)acetamide] were, in that order, 0.028 nM, over 10000 nM, 6.05 nM and over 1652 fold.
On the same counts, the results for `CC(=O)Nc1cc(Nc2cc(OCC3COC3)cc(S(C)(=O)=O)n2)c(-c2ccn(C)n2)cn1` [Example J25, N-(5-(1-methyl-1H-pyrazol-3-yl)-4-((6-(methylsulfonyl)-4-(oxetan-3-ylmethoxy)pyridin-2-yl)amino)pyridin-2-yl)acetamide] are 0.025 nM, over 10000 nM, 2.91 nM and over 3436 fold.
As for `CC(=O)Nc1cc(Nc2cc(C#N)cc(S(C)(=O)=O)n2)c(-c2ccn(C)n2)cn1` [Example J26, N-(4-((4-cyano-6-(methylsulfonyl)pyridin-2-yl)amino)-5-(1-methyl-1H-pyrazol-3-yl)pyridin-2-yl)acetamide], the figures for the IC50 in assay [1], in assay [2] and in assay [3] were 0.023 nM, over 10000 nM and 5.5 nM, respectively. Also, in assay [2], the “Selectivity fold (TYK2/JAK2)” value is given as over 1818 fold.
